From patent US20260069584A1, “METHODS OF TREATING CHRONIC MYELOID LEUKEMIA USING THE TYROSINE KINASE INHIBITOR VODOBATINIB” (Sun Pharma Advanced Research Company Ltd., priority 2022, published 2026)

Test: Part C: adverse events
Experimental: In this study, the patient population of each cohort was evaluated separately for efficacy and safety. The subjects were treated in 4-week cycles using once-daily, oral administration of the compound of Formula I and evaluated for anti-CML responses (hematological, cytogenetic and molecular response). The Adverse events (AEs) were assessed throughout the study until 30 days after discontinuation of administration of the compound of Formula I and were graded as per National Cancer Institute, Common Terminology Criteria for Adverse Events (NCI-CTCAE) Version 5.0.
Study assessments monitored the efficacy and safety of the compound of Formula I. The efficacy assessments at baseline included cytogenetic, molecular, and hematology evaluations and sequencing for identification of the BCR-ABL kinase domain mutation, if any. Cytogenetic and molecular assessments were carried out by central labs. Hematologic assessments were completed within the −7 to −1 days of the patient was dosed by the site's local laboratory. Safety assessments at baseline included clinical evaluations, electrocardiograms, complete blood counts, and serum chemistry tests.
Patients were evaluated every 7 days in 4-week cycles up until Cycle 3 day 1, after which they were required to visit the site on Cycle 3 day 28; and once every 3 cycles thereafter for complete blood counts, chemistry analyses, and efficacy assessments. Each cycle visit included clinical evaluations, electrocardiograms, complete blood counts, and serum chemistry tests. Efficacy assessments consisting of bone marrow aspiration for cytogenetic analysis with molecular testing to measure the BCR/ABL1 transcript levels were carried out every 3 months. On discontinuation, patients were required to visit the site for an End of Treatment (EoT) visit which happened 30 days after the date of discontinuation of therapy. Patients were followed for survival by telephone survey.

Cc1ccc(C(=O)NNC(=O)c2c(C)cccc2Cl)cc1C#Cc1cnc2ccccc2c1 [compound of Formula I, N′-(2-chloro-6-methylbenzoyl)-4-methyl-3-[2-(3-quinolyl)ethynyl]-benzohydrazide]
TEAE cough (19 subjects): 21.1% | TEAE dyspnea (19 subjects): 21.1% | TEAE fatigue (19 subjects): 21.1% | TEAE nausea (19 subjects): 26.3% | TEAE neutropenia (19 subjects): 21.1% | TEAE rash (19 subjects): 26.3% | TEAE thrombocytopenia (19 subjects): 31.6% | Abdominal pain (All Grades (N = 19)): 2 (10.5) n (%) | Anaemia (All Grades (N = 19)): 3 (15.8) n (%) | Arthralgia (All Grades (N = 19)): 2 (10.5) n (%) | Back pain (All Grades (N = 19)): 2 (10.5) n (%) | COVID-19 (All Grades (N = 19)): 2 (10.5) n (%) | Chest pain (All Grades (N = 19)): 2 (10.5) n (%) | Constipation (All Grades (N = 19)): 3 (15.8) n (%) | Contusion (All Grades (N = 19)): 2 (10.5) n (%) | Cough (All Grades (N = 19)): 4 (21.1) n (%) | Diarrhoea (All Grades (N = 19)): 3 (15.8) n (%) | Dizziness (All Grades (N = 19)): 2 (10.5) n (%) | Dry skin (All Grades (N = 19)): 3 (15.8) n (%) | Dyspnoea (All Grades (N = 19)): 4 (21.1) n (%) | Fatigue (All Grades (N = 19)): 4 (21.1) n (%) | Flank pain (All Grades (N = 19)): 2 (10.5) n (%) | Headache (All Grades (N = 19)): 3 (15.8) n (%) | Herpes zoster (All Grades (N = 19)): 2 (10.5) n (%) | Hypertension (All Grades (N = 19)): 3 (15.8) n (%) | Hyperuricaemia (All Grades (N = 19)): 2 (10.5) n (%) | Hypocalcaemia (All Grades (N = 19)): 2 (10.5) n (%) | Hypokalaemia (All Grades (N = 19)): 2 (10.5) n (%) | Hypophosphataemia (All Grades (N = 19)): 2 (10.5) n (%) | Muscle spasms (All Grades (N = 19)): 2 (10.5) n (%) | Nasopharyngitis (All Grades (N = 19)): 2 (10.5) n (%) | Nausea (All Grades (N = 19)): 5 (26.3) n (%) | Neutropenia (All Grades (N = 19)): 4 (21.1) n (%) | Oropharyngeal pain (All Grades (N = 19)): 2 (10.5) n (%) | Pancytopenia (All Grades (N = 19)): 2 (10.5) n (%) | Rash (All Grades (N = 19)): 5 (26.3) n (%) | thrombocytopenia (All Grades (N = 19)): 6 (31.6) n (%) | Abdominal pain (Grade 3 or 4 (N = 9)): 0 n | Anaemia (Grade 3 or 4 (N = 9)): 1 n | Arthralgia (Grade 3 or 4 (N = 9)): 0 n | Back pain (Grade 3 or 4 (N = 9)): 0 n | COVID-19 (Grade 3 or 4 (N = 9)): 1 n | Chest pain (Grade 3 or 4 (N = 9)): 0 n | Constipation (Grade 3 or 4 (N = 9)): 0 n | Contusion (Grade 3 or 4 (N = 9)): 0 n | Cough (Grade 3 or 4 (N = 9)): 0 n | Diarrhoea (Grade 3 or 4 (N = 9)): 1 n | Dizziness (Grade 3 or 4 (N = 9)): 0 n | Dry skin (Grade 3 or 4 (N = 9)): 0 n | Dyspnoea (Grade 3 or 4 (N = 9)): 1 n | Fatigue (Grade 3 or 4 (N = 9)): 0 n | Flank pain (Grade 3 or 4 (N = 9)): 0 n | Headache (Grade 3 or 4 (N = 9)): 0 n | Herpes zoster (Grade 3 or 4 (N = 9)): 0 n | Hypertension (Grade 3 or 4 (N = 9)): 0 n | Hyperuricaemia (Grade 3 or 4 (N = 9)): 0 n | Hypocalcaemia (Grade 3 or 4 (N = 9)): 1 n | Hypokalaemia (Grade 3 or 4 (N = 9)): 1 n | Hypophosphataemia (Grade 3 or 4 (N = 9)): 0 n | Muscle spasms (Grade 3 or 4 (N = 9)): 0 n | Nasopharyngitis (Grade 3 or 4 (N = 9)): 0 n | Nausea (Grade 3 or 4 (N = 9)): 1 n | Neutropenia (Grade 3 or 4 (N = 9)): 3 n | Oropharyngeal pain (Grade 3 or 4 (N = 9)): 0 n | Pancytopenia (Grade 3 or 4 (N = 9)): 1 n | Rash (Grade 3 or 4 (N = 9)): 0 n | thrombocytopenia (Grade 3 or 4 (N = 9)): 4 n | tolerability (heavily pre-treated CML population): well tolerated | Grade 3 or 4 TEAE neutropenia (in vivo): 33.3% | Grade 3 or 4 TEAE thrombocytopenia (in vivo): 44.4%
